According to paper PMC5363072 (Bioorganic & medicinal chemistry letters, 2016):
Each block holds one compound with its values, some of them ahead of it.

Legend:
[1] = target: T1, Rat ASCT2 (Rattus norvegicus, UniProt D3ZJ25); type: cell-based
T1 sequence (D3ZJ25 1-555): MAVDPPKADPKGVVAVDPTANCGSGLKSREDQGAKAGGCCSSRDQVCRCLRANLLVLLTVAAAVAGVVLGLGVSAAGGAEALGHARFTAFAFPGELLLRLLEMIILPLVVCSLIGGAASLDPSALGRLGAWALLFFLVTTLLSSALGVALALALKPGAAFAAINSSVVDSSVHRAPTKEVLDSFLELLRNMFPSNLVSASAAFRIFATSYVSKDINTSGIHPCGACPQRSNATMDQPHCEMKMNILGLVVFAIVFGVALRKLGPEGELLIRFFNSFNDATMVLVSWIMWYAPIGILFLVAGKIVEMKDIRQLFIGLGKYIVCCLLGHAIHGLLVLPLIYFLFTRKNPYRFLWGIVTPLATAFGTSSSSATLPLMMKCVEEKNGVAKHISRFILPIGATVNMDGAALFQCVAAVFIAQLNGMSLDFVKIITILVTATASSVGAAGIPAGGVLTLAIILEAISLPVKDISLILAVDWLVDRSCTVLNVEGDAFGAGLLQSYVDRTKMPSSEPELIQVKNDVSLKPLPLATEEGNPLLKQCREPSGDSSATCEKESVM

[2] = system: ASCT2; conditions: commercially available ASCT2 inhibitor; cited from earlier work

activity in ASCT2 ([1]; concentration up to 1 mM): does not induce any activity
Structure (SMILES): O=C(O)[C@@H]1CCCN1 [proline]

Structure (SMILES): O=C(O)[C@@H]1C[C@@H](Cc2ccc(-c3ccccc3)cc2)CN1 [(R)-γ-(4-biphenylmethyl)-L-proline]
higher affinity compared to any other ASCT2 inhibitor tested so far ([1]; compared to authors' earlier ASCT2 inhibitors [11],[15]): about 8 fold

Structure (SMILES): N[C@@H](CCC(=O)Nc1ccc([N+](=O)[O-])cc1)C(=O)O [L-γ-glutamyl-nitroanilide]
affinity for ASCT2 [2]: mM affinity

Ki [1]: 83 ± 20 µM
Structure (SMILES): O=C(O)[C@@H]1C[C@@H](Cc2ccccc2F)CN1 [(R)-γ-(2-fluoro-benzyl)-L-proline]
